Test results reported in patent publication US11571480B2, “Multi-ligand drug conjugates and uses thereof” (priority 2015, dated 2023).

Columns and labels:
[1] = Cytotoxicity test of conjugate LDC11B; assay type: cell-based, human; settings: human, 293A embryonic kidney cells, incubated 15-30 min, then 2-3 days
Experimental: (§1) Culture medium: RPMI 1640 Medium, no folic acid
(§2) 1) human lung cancer cell H460, ovarian cancer cell SKOV3, human embryonic kidney cell 293A were incubated at 37° C., 5% CO2 in RPMI 1640 medium containing 10% fetal bovine serum, the cells were passaged every 2-3 days.
(§3) 2) human lung cancer cell H460, ovarian cancer cell SKOV3, human embryonic kidney cell 293A were plated at 1×10^3 cells per well (96-well plate) and incubated for 8-12 h at 37° C., 5% CO2.
(§4) 3) Stock solutions of LDC conjugates or control were prepared in PBS solution. 100 μL/well of serially diluted LDC conjugates or control was added to the cells in the plate and incubated for 15-30 min at 37° C., 5% CO2. The culture medium in the wells was then removed by aspiration and the cells were incubated in fresh culture medium without conjugates (150 μL/well) for 2-3 days at 37° C., 5% CO2.
(§5) 4) CellTiter 96® Aqueous One Solution Cell Proliferation Assay (Promega) was added to each well to measure the amount of […] cells, and the plate was incubated in an incubator for 1 h at 37° C., 5% CO2.
(§6) 5) The plate was read at 490 nm on a microplate reader, and the cell survivals were compared for cells with or without the treatment of LDC conjugates. The LDC drug concentrations that are required for 50% cell death (IC50 values) were determined.

[2] = test system: Transplanted SKOV3 tumor; assay: Inhibitory assay of conjugates LDC11A, LDC11B against xenograf tumors; assay type: in vivo, nude mice; settings: for Body weight of mice / Tumor size: SKOV3 tumor, 10 mg/kg
Experimental: (§7) Animal: nude mice, aged 6-8 weeks, female
(§8) 1) human large cell lung cancer cell H460, ovarian cancer cell SKOV3, breast cancer cell line HCC1954, and human breast cancer cell SK-BR-3 were incubated at 37° C., 5% CO2 in IMDM medium containing 10% fetal bovine serum, the cells were passaged every 2-3 days.
(§9) 2) generation of tumors: 7×10^6 tumor cells were subcutaneously injected into the back of nude mice, and the mice were grouped for treatment after the tumor sizes were as large as about 100˜200 mm^3.
(§10) 3) treatment: 3 mice/group, treated with LDC11A, LDC11B, as well as controls MMAE and PBS with doses of 5 and 10 mg/kg every 5 days, three injections.
(§11) 4) the physical performance, body weights and tumor sizes of the animals were monitored. The number of animal death was recorded during the experiment.

[3] = test system: Transplanted H460 tumor; assay: as above; assay type: in vivo, nude mice; settings: for Body weight of mice / Tumor size: H460 tumor, 10 mg/kg
Experimental: as §7, §8, §9, §10, §11

[4] = test system: Transplanted HCC1954 tumor; assay: as above; assay type: in vivo, nude mice; settings: for Body weight of mice / Tumor size: HCC1954 tumor, 10 mg/kg
Experimental: as §7, §8, §9, §10, §11

[5] = test system: ovarian cancer cell SKOV3; assay: Cytotoxicity test of conjugate LDC11B; assay type: cell-based, human; settings: SKOV3, incubated 15-30 min, then 2-3 days
Experimental: as §1, §2, §3, §4, §5, §6

[6] = test system: human lung cancer cell H1299; assay: Cytotoxicity test of conjugate LDC10H; assay type: cell-based; settings: H1299, incubated 15-30 min, then 2-3 days
Experimental: as §1
(§12) 1) human lung cancer cell H1299, ovarian cancer cell SKOV3, breast cancer cell line HCC1954, and human lung cancer cell H460 were incubated at 37° C., 5% CO2 in RPMI 1640 medium containing 10% fetal bovine serum, the cells were passaged every 2-3 days.
(§13) 2) human lung cancer cell H1299, ovarian cancer cell SKOV3, breast cancer cell line HCC1954, and human lung cancer cell H460 were plated at 1×10^3 cells per well (96-well plate) and incubated for 8-12 h at 37° C., 5% CO2.
as §4, §5
(§14) 5) the plate was read at 490 nm on a microplate reader, and the cell survivals were compared for cells with or without the treatment of LDC conjugates. The LDC drug concentrations that are required for 50% cell death (IC50 values) were determined.

[7] = test system: human lung cancer cell H460; assay: Cytotoxicity test of conjugate LDC10H; assay type: cell-based; settings: H460, incubated 15-30 min, then 2-3 days
Experimental: as §1, §12, §13, §4, §5, §14

[8] = test system: ovarian cancer cell SKOV3; assay: Cytotoxicity test of conjugate LDC10B; assay type: cell-based, human; settings: SKOV3, Incubation Time 30 min
Experimental: as §1
(§15) 1) human nasopharyngeal cancer cell line KB, melanoma cell line A375, human lung cancer cell H1299, chronic myeloid leukemia cell line K562, human lung cancer cell H460, ovarian cancer cell SKOV3, breast cancer cell line HCC1954, human gastric cancer cell N87, and human breast cancer cell SK-BR-3 were incubated at 37° C., 5% CO2 in RPMI 1640 medium containing 10% fetal bovine serum, the cells were passaged every 2-3 days.
(§16) 2) human nasopharyngeal cancer cell line KB, melanoma cell line A375, human lung cancer cell H1299, chronic myeloid leukemia cell line K562, human lung cancer cell H460, ovarian cancer cell SKOV3, breast cancer cell line HCC1954, human gastric cancer cell N87, and human breast cancer cell SK-BR-3 were plated at 1×10^3 cells per well (96-well plate) and incubated for 8-12 h at 37° C., 5% CO2.
(§17) 3) Stock solutions of LDC conjugates or controls were prepared in PBS solution. 100 μL/well of serially diluted LDC conjugates or controls was added to the test cells in the plates and incubated for 15-30 min at 37° C., 5% CO2. The culture medium in the wells was then removed by aspiration and the test cells were incubated in fresh culture medium without conjugates (150 μL/well) for 2-3 days at 37° C., 5% CO2.
(§18) 4) CellTiter 96® Aqueous One Solution Cell Proliferation Assay (Promega) was added to each well to measure the amount of […] cells, and each plate was incubated in an incubator for 1 h at 37° C., 5% CO2.
(§19) 5) Each plate was read at 490 nm on a microplate reader, and the cell survivals were compared for test cells with or without the treatment of LDC conjugates. The LDC drug concentrations that are required for 50% cell death (IC50 values) were determined.

[9] = test system: breast cancer cell line HCC1954; assay: Cytotoxicity test of conjugate LDC10B; assay type: cell-based, human; settings: HCC1954, Incubation Time 30 min
Experimental: as §1, §15, §16, §17, §18, §19

[10] = test system: melanoma cell line A375; assay: Cytotoxicity test of conjugate LDC1013; assay type: cell-based; settings: A375, incubated 15-30 min, then 2-3 days
Experimental: as §1
(§20) 1) human nasopharyngeal cancer cell line KB, melanoma cell line A375, and human lung cancer cell H460 were incubated at 37° C., 5% CO2 in RPMI 1640 medium containing 10% fetal bovine serum, the cells were passaged every 2-3 days.
(§21) 2) human nasopharyngeal cancer cell line KB, melanoma cell line A375, and human lung cancer cell H460 were plated at 1×10^3 cells per well (96-well plate) and incubated for 8-12 h at 37° C., 5% CO2.
as §4, §5, §14

[11] = test system: human nasopharyngeal cancer cell line KB; assay: Cytotoxicity test of conjugate LDC1013; assay type: cell-based; settings: incubated 15-30 min, then 2-3 days
Experimental: as §1, §20, §21, §4, §5, §14

[12] = test system: human lung cancer cell H460; assay: Cytotoxicity test of conjugate LDC1013; assay type: cell-based; settings: H460, incubated 15-30 min, then 2-3 days
Experimental: as §1, §20, §21, §4, §5, §14

[13] = test system: melanoma cell line A375; assay: Cytotoxicity test of conjugate LDC10B; assay type: cell-based; settings: A375, Incubation Time 15 min
Experimental: as §1, §15, §16, §17, §18, §19

[14] = test system: chronic myeloid leukemia cell line K562; assay: Cytotoxicity test of conjugate LDC10B; assay type: cell-based; settings: K562, Incubation Time 30 min
Experimental: as §1, §15, §16, §17, §18, §19

[15] = test system: human breast cancer cell SK-BR-3; assay: Cytotoxicity test of conjugate LDC10B; assay type: cell-based; settings: SK-BR-3, Incubation Time 30 min
Experimental: as §1, §15, §16, §17, §18, §19

[16] = test system: human gastric cancer cell N87; assay: Cytotoxicity test of conjugate LDC10B; assay type: cell-based; settings: N87, Incubation Time 30 min
Experimental: as §1, §15, §16, §17, §18, §19

[17] = test system: human lung cancer cell H1299; assay: Cytotoxicity test of conjugate LDC10B; assay type: cell-based; settings: H1299, Incubation Time 30 min
Experimental: as §1, §15, §16, §17, §18, §19

[18] = test system: human nasopharyngeal cancer cell line KB; assay: Cytotoxicity test of conjugate LDC10B; assay type: cell-based; settings: Incubation Time 15 min
Experimental: as §1, §15, §16, §17, §18, §19

[19] = test system: human lung cancer cell H460; assay: Cytotoxicity test of conjugate LDC10B; assay type: cell-based; settings: H460, Incubation Time 30 min
Experimental: as §1, §15, §16, §17, §18, §19

[20] = test system: human embryonic kidney cell 293A; assay: Cytotoxicity test of conjugate LDC11B; assay type: cell-based; settings: incubated 15-30 min, then 2-3 days
Experimental: as §1, §2, §3, §4, §5, §6

[21] = test system: human lung cancer cell H460; assay: Cytotoxicity test of conjugate LDC11B; assay type: cell-based; settings: H460, incubated 15-30 min, then 2-3 days
Experimental: as §1, §2, §3, §4, §5, §6

[22] = test system: ovarian cancer cell SKOV3; assay: Cytotoxicity test of conjugate LDC10H; assay type: cell-based, human; settings: SKOV3, incubated 15-30 min, then 2-3 days
Experimental: as §1, §12, §13, §4, §5, §14

[23] = test system: breast cancer cell line HCC1954; assay: Cytotoxicity test of conjugate LDC10H; assay type: cell-based, human; settings: HCC1954, incubated 15-30 min, then 2-3 days
Experimental: as §1, §12, §13, §4, §5, §14

[24] = test system: human nasopharyngeal cancer cell line KB; assay: Cytotoxicity test of conjugate LDC13B; assay type: cell-based; settings: KB, incubated 15-30 min, then 2-3 days
Experimental: as §1
1) human nasopharyngeal cancer cell line KB, human colon carcinoma HCT-116, human prostatic cancer cell PC-3, human gastric cancer cell line GTL-16, human endometrial cancer cell HEC-1A, and human gastric cancer cell N87 were incubated at 37° C., 5% CO2 in RPMI 1640 medium containing 10% fetal bovine serum, the cells were passaged every 2-3 days.
2) human nasopharyngeal cancer cell line KB, human colon carcinoma HCT-116, human prostatic cancer cell PC-3, human gastric cancer cell line GTL-16, human endometrial cancer cell HEC-1A, and human gastric cancer cell N87 were plated at 1×10^3 cells per well (96-well plate) and incubated for 8-12 h at 37° C., 5% CO2.
as §4, §5, §14

Compound: CC[C@H](C)[C@@H]([C@@H](CC(=O)N1CCC[C@H]1[C@H](OC)[C@@H](C)C(=O)N[C@H](C)[C@@H](O)c1ccccc1)OC)N(C)C(=O)[C@@H](NC(=O)[C@H](C(C)C)N(C)C(=O)OCc1ccc(NC(=O)[C@H](CCCNC(N)=O)NC(=O)[C@@H](NC(=O)CCCCCN2C(=O)CC(SC[C@H](NC(=O)CNC(=O)[C@@H]3CCCN3C(=O)[C@H](CCCNC(=N)N)NC(=O)[C@H](CC(C)C)NC(=O)CNC(=O)[C@H](Cc3ccc(O)cc3)NC(=O)[C@H](CO)NC(=O)[C@H](Cc3c[nH]c4ccccc34)NC(=O)[C@H](Cc3c[nH]cn3)NC(=O)[C@H](CCC(=O)O)NC(=O)CC[C@H](NC(=O)c3ccc(NCC4=Nc5c([nH]c(N)nc5=O)NC4)cc3)C(=O)O)C(=O)O)C2=O)C(C)C)cc1)C(C)C (stereo partly drawn) [LDC11B]
- IC50 [1]: 524 nM
- tumor growth (in words) ([2]; SKOV3, three injections at 10 mg/kg): can inhibit the tumor growth
- Body weight of mice ([2]; Before Injection): 22.11 g
- Tumor size ([2]; Before Injection): 169.22 mm^3
- Body weight of mice ([2]; Five days after Injection 1): 24.28 g
- Tumor size ([2]; Five days after Injection 1): 137.66 mm^3
- Body weight of mice ([2]; Five days after Injection 2): 23.6 g
- Tumor size ([2]; Five days after Injection 2): 76.13 mm^3
- Body weight of mice ([2]; Five days after Injection 3): 24.92 g
- Tumor size ([2]; Five days after Injection 3): 27.84 mm^3
- tumor growth (in words) ([3]; H460, three injections at 10 mg/kg): can inhibit the tumor growth
- Body weight of mice ([3]; Before Injection): 21.85 g
- Tumor size ([3]; Before Injection): 225.32 mm^3
- Body weight of mice ([3]; Five days after Injection 1): 22.2 g
- Tumor size ([3]; Five days after Injection 1): 108.73 mm^3
- Body weight of mice ([3]; Five days after Injection 2): 22.55 g
- Tumor size ([3]; Five days after Injection 2): 0 mm^3
- Body weight of mice ([3]; Five days after Injection 3): 22.38 g
- Tumor size ([3]; Five days after Injection 3): 0 mm^3
- tumor growth (in words) ([4]; HCC1954, three injections at 10 mg/kg): can inhibit the tumor growth
- Body weight of mice ([4]; Before Injection): 22.76 g
- Tumor size ([4]; Before Injection): 218.76 mm^3
- Body weight of mice ([4]; Five days after Injection 1): 22.56 g
- Tumor size ([4]; Five days after Injection 1): 87.51 mm^3
- Body weight of mice ([4]; Five days after Injection 2): 23.15 g
- Tumor size ([4]; Five days after Injection 2): 0 mm^3
- Body weight of mice ([4]; Five days after Injection 3): 23.48 g
- Tumor size ([4]; Five days after Injection 3): 0 mm^3

Compound: Folate-(PEG)3-MC-Val-Cit-PAB-MMAE [LDC1]
- IC50 [5]: 295 nM
- IC50 [6]: 186 nM
- IC50 [7]: 137 nM
- IC50 [8]: 102 nM
- IC50 [9]: 94.4 nM
- IC50 [10]: 37000 nM
- IC50 [11]: 4000 nM
- IC50 [12]: 9400 nM
- IC50 [13]: 10000 nM
- IC50 [14]: 93.1 nM
- IC50 [15]: 98.2 nM
- IC50 [16]: 239 nM
- IC50 [17]: 262 nM
- IC50 [18]: 15000 nM
- IC50 [19]: 192 nM
- IC50 [20]: 715 nM
- IC50 [21]: 526 nM
- IC50 [22]: 201 nM
- IC50 [23]: 77.9 nM
- IC50 [24]: 65 nM
